Measurements published in US20110166417A1, “METHOD AND DEVICE FOR REPAIR OF DEGENERATIVE CARTILAGE” (THE REGENTS OF UNIVERSITY OF MICHIGAN, priority 2008, published 2011).

Legend:
[1] = test system: BMP-2, aggrecan and type II collagen mRNA expression in rat IVD cells; test: Mevalonate experiment; format: cell-based; conditions: mevalonate 200 μM
[2] = test system: BMP-2, aggrecan and collagen II mRNA expression in IVD cells; test: Quantitative real-time PCR, monolayer culture; format: cell-based, Sprague-Dawley rats; conditions: 3 μM, maximal at day 3
From the text: (§1) Disc cell isolation: Nucleus pulposus and inner anulus fibrosus cells of lumbar intervertebral discs from Sprague-Dawley rats were harvested by the enzymatic digestion and grown in monolayer until reached confluence.
(§2) Monolayer and Three-dimensional cell culture: Cells were trypsinized and subcultured in 12-well plate or embedded and cultured in alginate beads supplemented with complete DMEM/F12 medium after primary culture.
Quantitative real-time PCR: Total RNAs were extracted and cDNAs were synthesized using Invitrogen […]™ first-strand synthesis kit.

IVD cells = test: IVD cell proliferation / range of cell tolerance; format: cell-based, Sprague-Dawley rats; conditions: rat IVD cells
From the text: as §1, §2

[3] = test system: BMP-2, aggrecan and type II collagen mRNA expression in rat IVD cells; test: Quantitative real-time PCR, 3-D culture in alginate beads; format: cell-based, Sprague-Dawley rats
From the text: Monolayer and Three-dimensional cell culture: Cells were trypsinized and subcultured in 12-well plate or embedded and cultured in alginate beads supplemented with complete DMEM/F12 medium after primary culture. […] Quantitative real-time PCR: […] IVD Cell Isolation. Lumbar IVDs from Sprague-Dawley rats (Harlan Sprague-Dawley, Indianapolis, Ind.) aged 6-8 weeks were harvested immediately after euthanasia. NP and inner AF, including the transition zone (the area between the AF and the NP) were carefully removed from the disc and placed in DMEM/F12 medium (Gibco, Grand Island, N.Y.). […] Louis, Mo.) and 0.004% deoxyribonuclease II (Sigma-Aldrich) for 90 min at 37° C. under gentle agitation. The tissues were washed 3 times with Dulbecco's phosphate buffered saline (D-PBS) followed by digestion under the same conditions, except that the pronase was replaced with 0.04% collagenase type II (Sigma-Aldrich) for 6 hrs. […] Culture medium was changed on day 6 after cell seeding, and twice per week thereafter. Cell Culture in Alginate Beads. When the primary cell culture became confluent, the cells were trypsinized and washed twice with D-PBS and re-suspended in sterile 0.15 M NaCl containing 1.2% low-viscosity alginate (Sigma-Aldrich) at a density of 1×10^6 cells/ml. […] After 15 min, the newly formed alginate beads (containing about 12,000 cells/bead) were washed 3 times with sterile 0.15 M NaCl solution followed by 2 washes with DMEM/F-12 medium. […] Three days later, the medium was changed and treated with different doses of simvastatin (LKT Laboratories, St. […] To remove cells from the alginate bead, wells were rinsed 3 times with 0.15 M NaCl with gentle pipetting into the well. The rinse solution was incubated for 1 min and was aspirated off. Dissolving buffer (55 mmol/L sodium citrate and 0.15 M NaCl, pH 6.0) 3 times the volume of alginate was added to the wells, and plates were incubated at 37° C. for 15 min with gentle shaking. Cells were pelleted by centrifugation and the dissolved solution was collected for sGAG content measurement. The cell pellet was washed with D-PBS once and collected for DNA content determination or RNA extraction. All experiments were performed in triplicate. RNA Isolation and Reverse Transcription. Total RNA was extracted using the Trizol (Invitrogen, Carlsbad, Calif.) reagent followed by RNeasy Mini Kit (Qiagen, Inc., Valencia, Calif.) and DNase digestion with the RNase-free DNase set (Qiagen). Concentration of total RNA was determined at 260 nm with a spectrophotometer. Reverse transcription was carried out at 42° C. for 50 min in 20-μL volume with 100 ng of total RNA using the SuperScript First-Strand Synthesis System (Invitrogen, Carlsbad, Calif.). Quantitative Real-Time Polymerase Chain Reaction. Real-time polymerase chain reaction (PCR) was used to quantify gene expression levels of type II collagen, aggrecan, and BMP-2. GAPDH was used as an internal control and the TAQMAN® Real-Time PCR Kit (Applied Biosystems, Foster City, Calif.) was implemented. Reaction volume of 30 μl included 1 μL of cDNA, 1.5 ul of 20× of each primer/probe, and 12.5 μL of TAQMAN® PCR Master Mix (2×) (Applied Biosystems). Real-time PCR was performed using the following 3-step protocol: Step 1, 50° C. for 2 min; Step 2, 95° C. for 10 min; and Step 3, (95° C. for 15 sec, 60° C. for 1 min) times 45 cycles using the Gene Amp 7700 Sequence Detection System (Applied Biosystems). A positive standard curve for each primer was obtained by real-time PCR with serially-diluted cDNA sample mixture. The reaction efficacy of each gene was determined using the standard curves. The quantity of gene expression of aggrecan, type II collagen, and BMP-2 were calculated with standard samples and normalized with GAPDH internal control.

rat IVD cells = test: MTT assay, cell viability; format: cell-based
Description: MTT assay. Cell proliferation was determined by a modified MTT assay (Sigma-Aldrich) (47, 48). Briefly, at each time point, the medium was aspirated and washed with PBS once. MTT solution (0.5 mg/ml) in PBS was added and incubated at 37° C. for 1.5 hr. The cells were removed from the alginate bead and pelleted by centrifugation. The cell pellet was then washed with D-PBS once and 10% Triton X-100, 0.1 N HCl in 2-propanol solution was added to each well to dissolve the formazan at 4° C. for 3 hrs. The dissolved solution was centrifuged and the absorbance was determined immediately using a spectrophotometer at 540 nm wavelength filter. All experiments were performed in triplicate.

[4] = test system: aggrecan and type II collagen mRNA expression in rat IVD cells; test: BMP inhibition experiment (noggin); format: cell-based
Description: BMP Inhibition Experiment. […] On day 7 and/or day 14, the cells were removed from the alginate beads and the gene expression of type II collagen and aggrecan was determined.

BMP-2 = molecular target: T1, BMP-2 (Homo sapiens, UniProt P12643); conditions: noggin 3 μg/ml; cited from earlier work
T1 sequence (P12643 283-396): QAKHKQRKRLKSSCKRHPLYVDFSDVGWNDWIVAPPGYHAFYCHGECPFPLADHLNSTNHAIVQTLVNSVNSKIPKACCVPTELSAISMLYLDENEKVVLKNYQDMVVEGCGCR

[5] = noggin 3 μg/ml, simvastatin 3 μM, day 14

Q: For `CC(O)(CCO)CC(=O)O` (stereo not drawn) [Mevalonate, mevalonate], which “aggrecan, type II collagen and BMP-2 gene expression, mevalonate alone” value ([1]; alginate beads) is on record?
A: had no effect

Q: What about the “effect on gene expression (BMP-2, aggrecan, type II collagen) upregulated by simvastatin” value ([1]; simvastatin 3 μM, days 7 and 14) of the same compound?
A: completely reversed

Q: What does the source list for `CCC(C)(C)C(=O)O[C@H]1C[C@@H](C)C=C2C=C[C@H](C)[C@H](CC[C@@H]3C[C@@H](O)CC(=O)O3)[C@H]21` [simvastatin]?
A: increase of BMP-2 mRNA expression [2]: 2 fold; dose over which IVD cell proliferation was inhibited (IVD cells): over 3 μM; increase of collagen type II mRNA expression ([3]; 3-D culture (alginate beads), 3 μM, day 21): 16 fold; increase of aggrecan mRNA expression ([3]; 3-D culture, 3 μM, day 21): 11 fold; increase of BMP-2 mRNA expression ([3]; 3-D culture, 3 μM, peak level at day 7): 5 fold; day of maximal type II collagen mRNA expression ([3]; alginate beads): 21 days; day of maximum BMP-2 mRNA expression ([3]; alginate beads, 3 μM): 2 days; day of maximum aggrecan mRNA expression ([3]; alginate beads, 3 μM): 21 days; IVD cell viability (rat IVD cells; 0.3 μM, time points tested): had no effect; IVD cell viability (rat IVD cells; 1 μM, from day 3 and thereafter): significant decrease; IVD cell viability (rat IVD cells; 3 μM, all time points tested): decreased

Q: For Noggin, which “aggrecan and type II collagen mRNA expression, noggin alone” value ([4]; noggin 500 ng/ml, no simvastatin) is on record?
A: had no interference

Q: And the “block of aggrecan and type II collagen gene expression upregulated by simvastatin” value ([4]; noggin 500 ng/ml, simvastatin 3 μM, day 7)?
A: significantly blocked

Q: What about the “block of aggrecan and type II collagen gene expression upregulated by simvastatin” value ([4]; noggin 500 ng/ml, simvastatin 3 μM, day 14) of the same compound?
A: did not endure

Q: What about the “aggrecan and type II collagen gene expression compared with Veh+Veh, noggin alone” value ([4]; noggin 3 μg/ml) of the same compound?
A: inhibited both gene expressions significantly

Q: And the “effect on aggrecan gene expression upregulated by simvastatin” value [4, 5]?
A: failed to block

Q: What about the “effect on type II collagen gene expression upregulated by simvastatin” value [4, 5] of the same compound?
A: attenuated

Q: What about the “effect on type II collagen gene expression upregulated by simvastatin” value ([4]; noggin 3 μg/ml, simvastatin 3 μM, day 14, listed as noggin) of the same compound?
A: significantly attenuated

Q: And the “block of BMP-2 activity” value (BMP-2)?
A: over 90%
